Experimental data as given in paper PMC8301998, “Discovery of Novel Allosteric Modulators Targeting an Extra-Helical Binding Site of GLP-1R Using Structure- and Ligand-Based Virtual Screening” (Biomolecules, 2021).
Read-outs that look alike come from different tables or passages of the source.

Assays:
GLP-1R [1] = target: T1, GLP-1R (Homo sapiens, UniProt P43220); conditions: for Modulation of GLP-1-elicited cAMP accumulation / GLP-1 potency (in words): GLP-1R expressing CHO-K1 cells
Protocol: (§1) cAMP accumulation was measured using the LANCE Ultra cAMP kit (PerkinElmer, Boston, MA, USA) according to the manufacturer’s instructions. […] Cells were then resuspended with assay buffer (DMEM, 0.1% BSA, 5 mM HEPES) and seeded onto 384-well plates (6 × 10^5/mL, 5 μL/well). […] After the addition of 5 μL of Eu-cAMP tracer and ULight-anti-cAMP, the reactions were stopped. The plates were left for 1 h at room temperature to measure time-resolved FRET signals at excitation wavelengths of 620 nm and 665 nm by EnVision (PerkinElmer, Waltham, MA, USA).

GLP-1R [2] = target: T1, GLP-1R; conditions: for Effect on binding of GLP-1 to GLP-1R (in words): radiolabeled GLP-1, WT GLP-1R
Protocol: (§2) For homogeneous binding, cells were washed twice and incubated with a blocking buffer (F12 supplemented with 33 mM HEPES, and 0.1% (w/v) BSA, pH 7.4) for 2 h at 37 °C. […] Cells were washed three times with ice-cold PBS and lysed using 50 μL of lysis buffer (PBS supplemented with 20 mM Tris–HCl and 1% Triton X-100, pH 7.4). Subsequently, the plates were counted for radioactivity (counts per minute, CPM) in a scintillation counter (MicroBeta^2 Plate Counter, PerkinElmer, Waltham, MA, USA) using a scintillation cocktail (OptiPhaseSuperMix; PerkinElmer, Waltham, MA, USA).

GLP-1R [3] = target: T1, GLP-1R; assay: cell-based
Protocol: as §2

GLP-1R [4] = target: T1, GLP-1R; assay: cell-based; remark: listed apart in the source
Protocol: as §1

GLP-1R C347F mutant [5] = target: T2, GLP-1R C347F mutant (Homo sapiens, UniProt P43220, C347F); assay: Whole cell binding assay, competition with radiolabeled GLP-1 at mutant GLP-1R
T2 construct: expressed in transfected cells
Protocol: as §2

GLP-1R C347F mutant [6] = target: T2, GLP-1R C347F mutant; conditions: cited from earlier work
[7] = Table 3, PAMs from LBVS, relative to maximal response of GLP-1 at WT receptor
[8] = Table 3, PAMs, competition with 125I-GLP-1 (40 pM), whole cells
[9] = Table 4, analogues of new PAMs, competition with 125I-GLP-1
[10] = Table 1, NAMs from SBVS, relative to maximal response of GLP-1 at WT receptor
[11] = Table 1, NAMs, competition with 125I-GLP-1 (40 pM), whole cells

T1 sequence (P43220 24-463): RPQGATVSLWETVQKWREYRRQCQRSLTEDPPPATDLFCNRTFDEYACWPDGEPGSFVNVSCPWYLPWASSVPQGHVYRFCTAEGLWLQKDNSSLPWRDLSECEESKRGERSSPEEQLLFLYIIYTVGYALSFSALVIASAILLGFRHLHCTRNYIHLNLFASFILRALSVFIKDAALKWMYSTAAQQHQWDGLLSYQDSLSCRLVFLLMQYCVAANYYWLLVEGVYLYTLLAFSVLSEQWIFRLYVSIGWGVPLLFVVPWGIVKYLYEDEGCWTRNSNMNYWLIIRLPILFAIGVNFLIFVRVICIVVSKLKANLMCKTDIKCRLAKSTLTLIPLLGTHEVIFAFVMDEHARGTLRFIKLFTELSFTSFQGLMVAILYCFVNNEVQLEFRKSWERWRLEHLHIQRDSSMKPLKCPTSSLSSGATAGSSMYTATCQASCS
T2 sequence (P43220 24-463 C347F): as the sequence (P43220 24-463) above, with C324F counted along it

O=C(Cn1c(COc2ccccc2)nc2ccccc21)Nc1ccc(Cc2nnn[nH]2)cc1 [C10]
cAMP Accumulation Emax (% WT) (GLP-1R [1]; [7]): 92.93 ± 4.4 % WT | Binding Span ± SEM (GLP-1R [2]; [8]): 76.17 ± 16.21

CN(CC(=O)N1CCC(C(=O)O)CC1)C(=O)c1cccn1CCc1ccccc1 [C11]
Modulation of GLP-1-elicited cAMP accumulation / GLP-1 potency (in words) (GLP-1R [1]): positively modulated GLP-1 potency | IC50 (GLP-1R [3]): 8.91 µM | Binding Span ± SEM (GLP-1R [2]; [8]): −46.37 ± 5.83

CCOc1ccc(S(=O)(=O)Nc2ccccc2C(=O)OCC(=O)Nc2cc(C)on2)cc1 [C13]
cAMP Accumulation Emax (% WT) (GLP-1R [1]; [7]): 76.6 ± 6.24 % WT

COc1ccccc1NS(=O)(=O)c1cc(NC(=O)c2ccc(=O)n(C)n2)ccc1N1CCCC1 [C22]
cAMP Accumulation Emax (% WT) (GLP-1R [1]; [7]): 96.9 ± 4.56 % WT | Binding Span ± SEM (GLP-1R [2]; [8]): −135.7 ± 8.4

Cc1ccc(-c2nn(-c3ccccc3)cc2C(=O)Nc2cccc(-n3cnnn3)c2)o1 [C23]
EC50 (GLP-1R [4]): 15.8 µM | Modulation of GLP-1-elicited cAMP accumulation / GLP-1 potency (in words) (GLP-1R [1]): positively modulated GLP-1 potency | cAMP Accumulation Emax (% WT) (GLP-1R [1]; [7]): 98.5 ± 3.6 % WT | Binding Span ± SEM (GLP-1R [2]; [8]): N.B. ^d | Binding pIC50 ± SEM (GLP-1R [2]; [8]): N.B. ^d

COc1ccc(NC(=O)c2n[nH]c3ccc([N+](=O)[O-])cc23)cc1NS(=O)(=O)c1ccc(F)cc1 [C26]
cAMP Accumulation Emax (% WT) (GLP-1R [1]; [7]): 89.4 ± 3.72 % WT | Binding Span ± SEM (GLP-1R [2]; [8]): −82.09 ± 13.44

O=C(CSc1nnc[nH]1)Nc1sc2c(c1C(=O)NCc1ccccc1)CCCC2 [C31]
cAMP Accumulation Emax (% WT) (GLP-1R [1]; [7]): 91.0 ± 0.95 % WT | Binding Span ± SEM (GLP-1R [2]; [8]): −102.5 ± 6.85

Cc1ccc(NS(=O)(=O)c2ccc(NC(=O)c3n[nH]c4c3COc3ccccc3-4)cc2)cc1 [CD1652-A009]
cAMP Accumulation Emax (% WT) (GLP-1R [1]; Table 4, analogues of new PAMs): 114.9 ± 8.6 % WT | IC50 (GLP-1R [3]): 4.07 µM | Binding Span ± SEM (GLP-1R [2]; [9]): 51.92 ± 9.60

CCC(C)N(CC(=O)N(Cc1cccn1Cc1ccccc1)C1CCCCC1)C(=O)C1CCC1 (stereo not drawn) [CD3532-B002]
EC50 (GLP-1R [4]): 15.8 µM | cAMP Accumulation Emax (% WT) (GLP-1R [1]; Table 4, analogues of new PAMs): 92.2 ± 3.9 % WT | Binding Span ± SEM (GLP-1R [2]; [9]): N.B. ^c | Binding pIC50 ± SEM (GLP-1R [2]; [9]): N.B. ^c

CCCCN(CC(=O)N(Cc1cccn1Cc1ccccc1)C1CC1)C(=O)C1CCCC1 [CD3559-D005]
cAMP Accumulation Emax (% WT) (GLP-1R [1]; Table 4, analogues of new PAMs): 78.2 ± 13.6 % WT | Binding Span ± SEM (GLP-1R [2]; [9]): 35.25 ± 11.50

COc1ccc(S(=O)(=O)Nc2cccc(C(=O)Nc3cc(C)on3)c2)cc1 [JK1719-D011]
cAMP Accumulation Emax (% WT) (GLP-1R [1]; Table 4, analogues of new PAMs): 126.1 ± 4.2 % WT | Binding Span ± SEM (GLP-1R [2]; [9]): 59.69 ± 15.13 | Effect on binding of GLP-1 to GLP-1R (in words) (GLP-1R [2]): weakened the ligand binding

O=C(O)c1cccc(NN=Cc2cn(-c3ccccc3)nc2-c2cc3ccccc3o2)c1 [Z21]
Modulation of GLP-1-elicited cAMP accumulation / GLP-1 potency (in words) (GLP-1R [1]): negatively modulated | cAMP Accumulation Emax (% WT) (GLP-1R [1]; [10]): 97.02 ± 0.81 % WT | Binding Span ± SEM (GLP-1R [2]; [11]): 75.3 ± 12.57 | Effect on binding of GLP-1 to GLP-1R (in words) (GLP-1R [2]): decreased the binding of GLP-1 to GLP-1R

O=C(Nc1ccc(Cl)cc1)Nc1snnc1C(=O)Nc1ccc(C(=O)O)cc1 [Z42]
Binding at C347F mutant (in words) (GLP-1R C347F mutant [5]): enhanced the ligand binding | Modulation of GLP-1-elicited cAMP accumulation / GLP-1 potency (in words) (GLP-1R [1]): negatively modulated | cAMP Accumulation Emax (% WT) (GLP-1R [1]; [10]): 99.72 ± 0.80 % WT | Binding Span ± SEM (GLP-1R [2]; [11]): N.B. ^d | Binding pIC50 ± SEM (GLP-1R [2]; [11]): N.B. ^d

CC(C)(C)Nc1nc2cc(Cl)c(Cl)cc2nc1S(C)(=O)=O [compound 2, 6,7-dichloro-3-methanesulfonyl-2-tert-butylamino-quinoxaline]
Binding at C347F mutant (in words) (GLP-1R C347F mutant [6]): abolishment
